Reference: patent US20100311714A1, “1H-IMIDAZO[4,5-c]QUINOLINONE COMPOUNDS” (priority 2009, published 2010)

Assays:
PI3K beta = target: T1, PI3K beta (Homo sapiens, UniProt P42338); test: PI3K beta kinase assay (Kinase-Glo luminescence); assay type: biochemical; conditions: read-out: EPK_PI3Kbeta/IC50
T1 construct: for the full-length p110-b subunit are generated and fused by overlapping PCR; His tag (C); made in house; host or cells: baculovirus BV949; Tn5 (Trichoplusia ni) or TiniPro insect cells
T1 sequence (P42338 with tags, fused parts or gaps limits assumed): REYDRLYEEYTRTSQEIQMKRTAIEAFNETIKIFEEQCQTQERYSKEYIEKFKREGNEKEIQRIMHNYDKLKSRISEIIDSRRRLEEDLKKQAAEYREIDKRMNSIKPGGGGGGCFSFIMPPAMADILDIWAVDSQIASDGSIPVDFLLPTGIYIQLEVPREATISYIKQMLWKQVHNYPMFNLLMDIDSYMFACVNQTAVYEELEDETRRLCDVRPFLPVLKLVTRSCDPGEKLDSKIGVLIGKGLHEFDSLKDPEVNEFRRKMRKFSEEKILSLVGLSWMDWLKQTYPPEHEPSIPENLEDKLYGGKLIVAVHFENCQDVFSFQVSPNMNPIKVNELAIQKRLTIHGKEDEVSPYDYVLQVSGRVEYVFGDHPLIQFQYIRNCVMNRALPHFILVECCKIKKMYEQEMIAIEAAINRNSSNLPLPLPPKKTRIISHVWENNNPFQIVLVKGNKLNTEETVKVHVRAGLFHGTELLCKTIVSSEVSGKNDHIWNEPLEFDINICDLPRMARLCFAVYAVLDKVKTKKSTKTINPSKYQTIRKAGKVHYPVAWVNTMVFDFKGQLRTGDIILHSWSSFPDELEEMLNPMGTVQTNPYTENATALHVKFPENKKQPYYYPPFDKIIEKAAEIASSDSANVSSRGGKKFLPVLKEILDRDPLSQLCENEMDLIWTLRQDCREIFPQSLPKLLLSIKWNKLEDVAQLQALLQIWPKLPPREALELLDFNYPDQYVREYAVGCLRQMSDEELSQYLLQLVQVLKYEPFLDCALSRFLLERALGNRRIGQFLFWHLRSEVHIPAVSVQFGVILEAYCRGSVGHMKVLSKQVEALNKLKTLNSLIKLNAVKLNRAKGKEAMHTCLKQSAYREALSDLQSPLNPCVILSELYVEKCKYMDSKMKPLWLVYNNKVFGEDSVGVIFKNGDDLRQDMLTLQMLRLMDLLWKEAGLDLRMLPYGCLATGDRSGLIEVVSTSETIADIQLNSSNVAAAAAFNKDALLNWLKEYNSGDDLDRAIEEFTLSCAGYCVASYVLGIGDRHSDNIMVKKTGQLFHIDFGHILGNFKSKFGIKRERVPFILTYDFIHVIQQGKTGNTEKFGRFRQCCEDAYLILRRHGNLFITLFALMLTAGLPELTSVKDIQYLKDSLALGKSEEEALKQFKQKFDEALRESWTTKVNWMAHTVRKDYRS
Procedure: (§1) In a more preferred assay, the kinase reaction is performed in a final volume of 10 μL per well of a low volume non binding CORNING, 384 well black plate (Cat. No. #3676). The final concentrations of ATP and phosphatidyl inositol (PI) in the assay are 1 μM and 10 μg/mL respectively. The reaction is started by the addition of ATP.
(§2) The components of the assay are added per well as follows:
(§3) 50 nL test compounds in 90% DMSO per well, in columns 1-20, 8 concentrations (⅓ and 1/3.33 serial dilution step) in single. • Low control: […] of 90% DMSO in half the wells of columns 23-24 (0.45% in final). • High control: 50 nL of reference compound (e.g. compound of Example 7 in WO 2006/122806) in the other half of columns 23-24 (2.5 μM in final). • Standard: 50 nL of reference compound as just mentioned diluted as the test compounds in columns 21-22 • 20 mL ‘buffer’ are prepared per assay: • 200 μL of 1M TRIS HCl pH7.5 (10 mM in final) • 60 μL of 1M MgCl2 (3 mM in final) • 500 μL of 2M NaCl (50 mM in final) • 100 μL of 10% CHAPS (0.05% in final) • 200 μL of 100 mM DTT (1 mM in final) • 18.94 mL of nanopure water • 10 mL ‘PI’ are prepared per assay: • 200 μL of 1 mg/ml L-alpha-Phosphatidylinositol (Liver Bovine, Avanti Polar Lipids Cat. No. 840042C MW=909.12) prepared in 3% OctylGlucoside (10 μg/ml in final) • 9.8 mL of ‘buffer’ • 10 mL ‘ATP’ are prepared per assay: • 6.7 μL of 3 mM stock of ATP giving a final concentration of 1 μM per well • 10 mL of ‘buffer’ • 2.5 mL of each PI3K construct are prepared per assay in ‘PI’ with the following final concentration: • 10 nM PI3K alfa EMV B1075 • 25 nM beta EMV BV949 • 10 nM delta EMV BV1060 • 150 nM gamma EMV BV950 • 5 μL of ‘PI/PI3K’ are added per well. • 5 μl ‘ATP’ are added per well to start the reaction. • The plates are then incubated at room temperature for 60 minutes (alfa, beta, delta) or 120 minutes (gamma). • The reaction is terminated by the addition of 10 μL Kinase-Glo (Promega Cat. No. #6714). • The assay plates are read after 10 minutes in Synergy 2 reader (BioTek, Vermont USA) with an integration time of 100 milliseconds and sensitivity set to 191. • Output: The High control is around 60′000 counts and the Low control is 30′000 or lower • This luminescence assay gives a useful Z′ ratio between 0.4 and 0.7
PI3Kβ BV-949 p85(iSH2)-Gly linker-r 110b(full-length)-C-term His Tag
PI3K beta is purified in two chromatographic steps: immobilized metal affinity chromatography (IMAC) on a Ni Sepharose resin (GE Healthcare) and gel filtration (GFC) utilizing a Superdex 200 26/60 column (GE Healthcare). All buffers are chilled to 4° C. and lysis is performed chilled on ice. Column fractionation is performed rapidly at room temperature.
(§4) IC50 is determined by a four parameter curve fitting routine that comes along with “excel fit”. A 4 Parameter logistic equation is used to calculate IC50 values (IDBS XLfit) of the percentage inhibition of each compound at 8 concentrations (usually 10, 3.0, 1.0, 0.3, 0.1, 0.030, 0.010 and 0.003 μM). Alternatively, IC50 values are calculated using idbsXLfit model 204, which is a 4 parameter logistic model.

PI3K alfa = target: T2, PI3K alfa (Homo sapiens, UniProt P42336); test: PI3K alpha kinase assay (Kinase-Glo luminescence); assay type: biochemical; conditions: read-out: EPK_PI3Kalfa/IC50
T2 construct: His tag (C); made in house; host or cells: baculovirus BV1075; Tn5 (Trichoplusia ni) or TiniPro insect cells
T2 sequence (P42336 with tags, fused parts or gaps limits assumed): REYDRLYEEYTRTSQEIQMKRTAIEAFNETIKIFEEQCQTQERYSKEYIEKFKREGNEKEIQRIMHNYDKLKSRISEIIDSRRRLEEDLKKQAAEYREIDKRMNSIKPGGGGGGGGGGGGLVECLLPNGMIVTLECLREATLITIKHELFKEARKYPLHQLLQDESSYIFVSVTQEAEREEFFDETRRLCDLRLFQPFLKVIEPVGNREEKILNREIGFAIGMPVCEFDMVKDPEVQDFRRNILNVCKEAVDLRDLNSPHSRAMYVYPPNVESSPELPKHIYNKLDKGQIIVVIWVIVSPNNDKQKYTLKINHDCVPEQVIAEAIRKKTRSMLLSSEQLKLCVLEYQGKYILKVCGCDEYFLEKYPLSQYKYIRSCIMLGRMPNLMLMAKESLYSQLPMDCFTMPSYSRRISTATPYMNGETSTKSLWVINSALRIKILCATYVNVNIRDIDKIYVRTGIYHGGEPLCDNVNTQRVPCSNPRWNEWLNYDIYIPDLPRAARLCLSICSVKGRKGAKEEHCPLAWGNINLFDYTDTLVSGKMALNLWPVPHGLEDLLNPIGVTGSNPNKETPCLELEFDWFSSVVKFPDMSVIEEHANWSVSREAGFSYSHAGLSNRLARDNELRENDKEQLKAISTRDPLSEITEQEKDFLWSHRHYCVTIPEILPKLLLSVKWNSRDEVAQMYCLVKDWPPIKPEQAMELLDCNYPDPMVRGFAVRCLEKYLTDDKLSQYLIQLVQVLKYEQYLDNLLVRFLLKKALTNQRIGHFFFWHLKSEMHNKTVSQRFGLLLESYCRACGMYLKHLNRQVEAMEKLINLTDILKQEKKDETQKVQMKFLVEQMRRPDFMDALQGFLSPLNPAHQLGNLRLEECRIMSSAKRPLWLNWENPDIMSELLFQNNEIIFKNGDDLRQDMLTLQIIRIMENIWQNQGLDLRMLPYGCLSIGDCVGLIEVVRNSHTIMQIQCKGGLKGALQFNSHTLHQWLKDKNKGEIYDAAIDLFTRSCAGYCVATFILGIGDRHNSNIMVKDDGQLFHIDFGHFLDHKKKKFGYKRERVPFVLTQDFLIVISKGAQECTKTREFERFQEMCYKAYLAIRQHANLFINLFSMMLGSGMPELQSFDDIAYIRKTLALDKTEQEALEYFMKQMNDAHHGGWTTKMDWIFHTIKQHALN
Procedure: as §1, §2, §3
Two different constructs, BV 1052 and BV 1075, are used to generate the PI3 Kinase α proteins for compound screening.
PI3K alpha is purified in three chromatographic steps: immobilized metal affinity chromatography on a Ni Sepharose resin (GE Healthcare, belonging to General Electric Company, Fairfield, Conn., USA), gel filtration utilizing a Superdex 200 26/60 column (GE Healthcare), and finally a cation exchange step on a SP-XL column (GE Healthcare). All buffers are chilled to 4° C. and lysis is performed chilled on ice. Column fractionation is performed rapidly at room temperature.
as §4

mTOR = target: T3, mTOR (Homo sapiens, UniProt P42345); test: Biochemical assay for m-TOR by TR-FRET; conditions: read-out: EPK_mTOR/IC50
T3 construct: purchased Invitrogen Corporation (Carlsbad/Calif., USA) PV4753
T3 sequence (P42345 1360-2549 limits assumed): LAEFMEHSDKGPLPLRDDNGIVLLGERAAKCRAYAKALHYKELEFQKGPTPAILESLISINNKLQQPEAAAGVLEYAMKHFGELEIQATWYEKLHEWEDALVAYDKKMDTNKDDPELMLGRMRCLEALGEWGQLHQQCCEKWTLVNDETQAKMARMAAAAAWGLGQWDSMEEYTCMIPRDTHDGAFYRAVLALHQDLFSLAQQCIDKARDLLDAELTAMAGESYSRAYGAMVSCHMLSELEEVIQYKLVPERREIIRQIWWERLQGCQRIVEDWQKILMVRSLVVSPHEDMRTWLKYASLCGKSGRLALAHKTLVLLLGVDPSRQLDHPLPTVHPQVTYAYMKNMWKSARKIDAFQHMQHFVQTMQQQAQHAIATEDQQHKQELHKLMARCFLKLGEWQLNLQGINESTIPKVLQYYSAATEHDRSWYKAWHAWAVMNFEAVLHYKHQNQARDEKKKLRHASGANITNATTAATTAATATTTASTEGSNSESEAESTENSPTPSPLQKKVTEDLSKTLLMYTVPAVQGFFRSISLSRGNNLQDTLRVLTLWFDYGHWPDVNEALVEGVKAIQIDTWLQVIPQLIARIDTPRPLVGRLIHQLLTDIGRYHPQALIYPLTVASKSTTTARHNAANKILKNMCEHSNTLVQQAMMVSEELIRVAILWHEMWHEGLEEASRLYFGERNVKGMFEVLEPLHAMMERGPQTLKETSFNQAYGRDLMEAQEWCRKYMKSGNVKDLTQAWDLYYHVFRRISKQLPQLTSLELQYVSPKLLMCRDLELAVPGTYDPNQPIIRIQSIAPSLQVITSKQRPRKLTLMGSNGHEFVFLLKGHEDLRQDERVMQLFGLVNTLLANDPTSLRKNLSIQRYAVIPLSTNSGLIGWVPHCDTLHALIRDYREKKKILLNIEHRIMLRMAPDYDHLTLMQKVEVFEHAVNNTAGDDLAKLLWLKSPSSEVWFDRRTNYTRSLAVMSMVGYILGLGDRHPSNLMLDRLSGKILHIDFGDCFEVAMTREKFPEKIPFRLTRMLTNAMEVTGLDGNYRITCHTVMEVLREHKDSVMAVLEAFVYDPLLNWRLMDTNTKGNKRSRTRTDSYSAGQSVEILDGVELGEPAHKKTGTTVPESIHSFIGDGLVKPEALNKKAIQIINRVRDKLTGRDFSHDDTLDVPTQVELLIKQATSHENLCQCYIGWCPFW
Procedure: Biochemical Assay for m-TOR by TR-FRET.
Assay components are purchased from Invitrogen Corporation (Carlsbad/Calif., USA): GFP-4EBP1 (Cat. No. PV4759), Tb3+-α-p4EBP1 [pThr46] Antibody (Cat. No. PV4757), proprietary TR-FRET dilution buffer (Cat. No. PV3574), mTOR protein (Cat. No. PV4753).
50 nL of compound dilutions (final concentration of 10, 3.0, 1.0, 0.3, 0.1, 0.03, 0.01 and 0.003 μM) are dispensed onto black 384-well low volume non-binding polystyrene (Cat. No. NBS#3676, Corning, Lowell/Mass., USA). Then 5 μL of ATP (8 μM final concentration) and GFP-4EBP1 (400 nM final concentration) with 5 μL mTOR proteins (0.5 nM final concentration) are incubated at rt. The standard reaction buffer for the TR-FRET mTOR assay contained 50 mM HEPES pH 7.5, 10 mM MnCl2, 50 mM NaCl, 1 mM EGTA, 1 mM DTT. Reactions were stopped with 10 μL of a mixture of EDTA containing the Tb3+-α-p4EBP1[pT46] detection Ab (0.5 nM) in TR-FRET dilution buffer (proprietary to IVG). Plates are read 15 mins later in a Synergy2 reader using an integration time of 0.2 seconds and a delay of 0.1 seconds. Control for the 100% inhibition of the kinase reaction is performed by replacing the mTOR kinase by the standard reaction buffer. The control for the 0% inhibition is given by the solvent vehicle of the compounds (90% DMSO in H2O). A standard compound is used as a reference compound and included in all assay plates in the form of 16 dilution points in duplicate.

PI3K delta = target: T4, PI3K delta (Homo sapiens, UniProt O00329); test: PI3K delta kinase assay (Kinase-Glo luminescence); assay type: biochemical; conditions: read-out: EPK_PI3Kdelta/IC50
T4 construct: for the full-length p110-d subunit are generated and fused by overlapping PCR; His tag (C); made in house; host or cells: baculovirus BV1060; Tn5 (Trichoplusia ni) or TiniPro insect cells
T4 sequence (O00329 with tags, fused parts or gaps limits assumed): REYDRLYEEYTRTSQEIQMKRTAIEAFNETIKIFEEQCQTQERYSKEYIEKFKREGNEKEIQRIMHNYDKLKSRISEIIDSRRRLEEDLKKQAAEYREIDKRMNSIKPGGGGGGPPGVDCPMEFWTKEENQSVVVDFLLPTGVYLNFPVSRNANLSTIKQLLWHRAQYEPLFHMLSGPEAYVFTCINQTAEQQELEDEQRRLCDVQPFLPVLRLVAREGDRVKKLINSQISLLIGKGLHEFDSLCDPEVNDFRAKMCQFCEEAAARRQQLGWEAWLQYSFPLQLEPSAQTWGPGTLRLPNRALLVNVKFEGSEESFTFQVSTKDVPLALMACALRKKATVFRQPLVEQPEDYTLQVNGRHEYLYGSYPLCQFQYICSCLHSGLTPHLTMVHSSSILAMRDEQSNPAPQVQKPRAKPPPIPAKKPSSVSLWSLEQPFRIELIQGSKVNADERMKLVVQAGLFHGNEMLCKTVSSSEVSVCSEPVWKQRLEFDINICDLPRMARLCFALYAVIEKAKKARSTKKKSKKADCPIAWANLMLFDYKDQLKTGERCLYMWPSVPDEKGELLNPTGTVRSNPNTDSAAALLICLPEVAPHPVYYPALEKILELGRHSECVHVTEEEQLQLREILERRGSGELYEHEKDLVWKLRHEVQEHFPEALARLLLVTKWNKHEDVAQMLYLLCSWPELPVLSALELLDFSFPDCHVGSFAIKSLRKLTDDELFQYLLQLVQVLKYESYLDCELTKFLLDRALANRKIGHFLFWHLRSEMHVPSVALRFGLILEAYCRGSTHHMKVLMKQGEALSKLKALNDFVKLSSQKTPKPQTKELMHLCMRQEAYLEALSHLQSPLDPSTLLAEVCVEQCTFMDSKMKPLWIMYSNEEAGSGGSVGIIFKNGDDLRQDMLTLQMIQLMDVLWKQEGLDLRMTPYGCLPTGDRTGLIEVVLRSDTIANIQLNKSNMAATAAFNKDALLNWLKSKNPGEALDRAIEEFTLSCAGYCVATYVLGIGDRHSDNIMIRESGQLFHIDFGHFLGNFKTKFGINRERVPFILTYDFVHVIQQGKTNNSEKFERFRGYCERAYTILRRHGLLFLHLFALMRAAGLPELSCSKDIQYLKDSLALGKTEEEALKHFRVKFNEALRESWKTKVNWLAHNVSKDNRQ
Procedure: as §1, §2, §3
PI3Kδ BV-1060 p85(iSH2)-Gly Linker-p110d(Full-Length)-C-Term His Tag
PI3K delta is purified in three chromatographic steps: immobilized metal affinity chromatography on a Ni Sepharose resin (GE Healthcare), gel filtration utilizing a Superdex 200 26/60 column (GE Healthcare), and finally a anion exchange step on a Q-HP column (GE Healthcare). All buffers are chilled to 4° C. and lysis is performed chilled on ice. Column fractionation is performed rapidly at room temperature. Typically frozen insect cells are lysed in a hypertonic lysis buffer and applied to a prepared IMAC column. The resin is washed with 3-5 column volumes of lysis buffer, followed by 3-5 column volumes wash buffer containing 45 mM imidazole, and the target protein is then eluted with a buffer containing 250 mM imidazole. Fractions are analyzed by Coomassie stained SDS-PAGE gels, and fractions containing the target protein are pooled and applied to a prepared GFC column. Fractions from the GFC column are analyzed by Coomassie stained SDS-PAGE gels, and fractions containing the target protein are pooled. The pool from the GFC column is diluted into a low salt buffer and applied to a prepared Q-HP column. The column is washed with low salt buffer until a stable A280 baseline absorbance is achieved, and eluted using a 20 column volume gradient from 0 mM NaCl to 500 mM NaCl. Again, fractions from the Q-HP column are analyzed by Coomassie stained SDS-PAGE gels, and fractions containing the target protein are pooled. The final pool is dialyzed into a storage buffer containing 50% glycerol and stored at −20° C. The final pool is assayed for activity in the phosphoinostitol kinase assay. […]

Row | IC50 (PI3K beta) | IC50 (PI3K alfa) | IC50 (mTOR) | IC50 (PI3K delta) | SMILES
1 | 56 nM | 41 nM | 36 nM | 25 nM | Cc1nc(C(F)(F)F)ccc1-n1c(=O)n(C)c2cnc3ccc(-c4cnc(N)c(CO)c4)cc3c21 [Example 33.5, 8-(6-Amino-5-hydroxymethyl-pyridin-3-yl)-3-methyl-1-(2-methyl-6-trifluoromethyl-pyridin-3-yl)-1,3-dihydro-imidazo[4,5-c]quinolin-2-one]
2 | 48.7 nM | 14 nM | 175 nM | 10 nM | COc1cc(-c2ccc3ncc4c(c3c2)n(-c2ccc(N3CC(F)(F)C(F)(F)C3)nc2C)c(=O)n4C)cnc1CO [Example 35.3, 8-(6-Hydroxymethyl-5-methoxy-pyridin-3-yl)-3-methyl-1-[2-methyl-6-(3,3,4,4-tetrafluoro-pyrrolidin-1-yl)-pyridin-3-yl]-1,3-dihydro-imidazo[4,5-c]quinolin-2-one]
